We go through 18 compounds from paper PMC9050923, “6,N^2-Diaryl-1,3,5-triazine-2,4-diamines: synthesis, antiproliferative activity and 3D-QSAR modeling” (RSC Advances, 2020).

Read-outs that look alike come from different tables or passages of the source. A value given as a limit tells only on which side of the number the result lay.

Common to all, as to format: cell-based
One test relates to MDA-MB231. Put plainly: MTT assay, MDA-MB231 breast cancer cells. To be noted: Homo sapiens, MDA-MB-231; for viability at 10 µM: 72 h after the treatment, mean of three independent experiments, read-out: Percentage of cell viability MDA-MB231. The method, boiled down: (§1)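 Cells seeded 24 h at 37 °C, 5% CO2, then treated 72 h with a concentration range; single-point screen at 10 μM gave % viability. MTT (0.5 mg/mL, 4 h), DMSO-solubilised, A570; GI50 from sigmoidal curves, mean of three experiments.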
(Formazan colour is commonly taken as a measure of viable cells.)

For another test, the system named is SKBR-3. Put plainly: MTT assay, SKBR-3 breast cancer cells. To be noted: for viability at 10 µM / GI50: Homo sapiens, SK-BR-3, MTT; for viability at 10 µM: 72 h after the treatment, mean of three independent experiments, read-out: Percentage of cell viability SKBR-3; for GI50: 72 h, mean of three independent experiments ± SEM. Put shortly:
as §1

The test system of another test is MCF-7. Put plainly: MTT assay, MCF-7 breast cancer cells. Conditions: Homo sapiens; for viability at 10 µM: MCF7, 10 μM, 72 h after the treatment, mean of three independent experiments, read-out: Percentage of cell viability MCF-7; for GI50: MCF7, 72 h, mean of three independent experiments ± SEM. The method, boiled down:
as §1

The next test has as its system MCF-10A. Put plainly: MTT assay, MCF-10A normal breast cells. Conditions: Homo sapiens, 72 h, read-out: GI50 (μM) ± SEM MCF-10A. How it is done:
All the compounds, selected for determination of GI50 values against MDA-MB231 cells, were also used for the experiments with MCF-10A normal breast cells.
The cytotoxic activity of 6,N^2-diaryl-1,3,5-triazine-2,4-diamines (1–126) was evaluated against three breast carcinoma cell lines (MDA-MB231, SKBR-3, and MCF-7) and normal breast cell line (MCF-10A) by MTT assay.[22] All cells were obtained from the American Type Culture Collection and were grown in 10% fetal bovine serum and 1% pen-strep antibiotic supplemented media (DMEM for MDA-MB231 and SKBR-3, RPMI for MCF-7, and MEGM for MCF-10A). For MTT assay, 20 000 to 75 000 cells per mL (based on the doubling time for each cell line) were seeded in 96 well plates and incubated for 24 h at 37 °C in 5% CO2 incubator. Then, compounds at different concentrations were added followed by the incubation at 37 °C for 72 h. After that, MTT solution (0.5 mg mL^−1) was added and the plates were incubated for another 4 h. The supernatant was then discarded and 100 μL of DMSO was added to each well. The plates were then read by Tecan NanoQuant (model: infinite m200 pro) plate reader and absorbance was measured at 570 nm. GI50 values were calculated using sigmoidal concentration–response curves (see ESI ^†) generated using the GraphPad Prism 7 program. Three independent experiments were carried out and the data were represented as mean of the three experiments.

Where [1] appears, read: 72 h, MTT, mean of three independent experiments ± SEM, read-out: GI50 (μM) ± SEM MDA-MB231.
The mark [2] stands for this setting: −log[GI50], MDA-MB231, read-out: Experimental pGI50 (converted).

As for `Nc1nc(Nc2ccc(F)cc2)nc(-c2cccc(F)c2)n1` [Compound 14], the viability (in general, a per cent measure of how many cells are alive, often set against a control) at 10 µM is 50% in the test with MDA-MB231 (MTT), 100% in the test on SKBR-3 and 78% in the test with MCF-7. For the same compound, the GI50 is 9.21 ± 0.38 µM in the test on MDA-MB231 (setting [1]); 9.12 µM in the test with MDA-MB231 (setting [2]); above 20 µM in the test on SKBR-3; above 20 µM with MCF-7; above 25 µM in the test with MCF-10A.

As to `Nc1nc(Nc2ccc(Br)cc2)nc(-c2cccc(F)c2)n1` [Compound 16], the values for the viability at 10 µM in the test with MDA-MB231 (MTT), in the test with SKBR-3 and in the test on MCF-7 were 43%, 89% and 80%, respectively. The GI50 is 13.1 ± 0.91 µM in the test on MDA-MB231 (setting [1]); 13.2 µM with MDA-MB231 (setting [2]); 17.2 ± 1.07 µM in the test on SKBR-3; above 20 µM in the test with MCF-7; above 25 µM in the test on MCF-10A.

With `Cc1ccc(Nc2nc(N)nc(-c3cccc(F)c3)n2)cc1` [Compound 17], the viability at 10 µM in the test on MDA-MB231 (MTT) amounted to 29%; with SKBR-3, 90%; in the test on MCF-7 it was 71%. In addition, the GI50 with MDA-MB231 (setting [1]) is 3.96 ± 0.17 µM; in the test on MDA-MB231 (setting [2]), 3.98 µM; in the test on SKBR-3, above 20 µM; in the test with MCF-7 it was above 20 µM; with MCF-10A, above 25 µM.

For the compound `COc1ccc(Nc2nc(N)nc(-c3cccc(F)c3)n2)cc1` [Compound 18], the viability at 10 µM with MDA-MB231 (MTT) worked out at 46%; in the test with SKBR-3, 74%; with MCF-7, 76%. For the same compound, the GI50 is 6.18 ± 0.43 µM with MDA-MB231 (setting [1]); 6.17 µM in the test with MDA-MB231 (setting [2]); 16.6 ± 1.38 µM in the test with SKBR-3; above 20 µM with MCF-7; above 25 µM in the test on MCF-10A.

Regarding `Nc1nc(Nc2ccc(OC(F)(F)F)cc2)nc(-c2cccc(F)c2)n1` [Compound 19], the viability at 10 µM with MDA-MB231 (MTT) was 50%; in the test on SKBR-3, 100%; in the test on MCF-7, 76%. The GI50 in the test with MDA-MB231 (setting [1]) is 8.56 ± 0.59 µM; in the test on MDA-MB231 (setting [2]), 8.51 µM; in the test on SKBR-3 it was above 20 µM; with MCF-7, 18.2 ± 1.28 µM; with MCF-10A, above 25 µM.

Take `Nc1nc(Nc2ccc(F)cc2)nc(-c2ccc(Cl)cc2)n1` [Compound 36]: the viability at 10 µM in the test on MDA-MB231 (MTT) came to 49%; in the test with SKBR-3, 98%; in the test with MCF-7 it was 100%. Also, the GI50 with MDA-MB231 (setting [1]) was 14.1 ± 1.52 µM; in the test on MDA-MB231 (setting [2]), 14.1 µM; in the test with SKBR-3 it was 19.4 ± 2.39 µM; in the test on MCF-7 it was above 20 µM; in the test with MCF-10A, above 25 µM.

With `Cc1ccc(Nc2nc(N)nc(-c3cccc(C)c3)n2)cc1` [Compound 56], the viability at 10 µM in the test on MDA-MB231 (MTT) turned out to be 12%; in the test on SKBR-3 it was 62%; in the test on MCF-7, 67%. Moreover, the GI50 in the test with MDA-MB231 (setting [1]) was 0.17 ± 0.02 µM; in the test with MDA-MB231 (setting [2]) it was 0.17 µM; in the test on SKBR-3, 1.26 ± 0.18 µM; in the test on MCF-7, above 20 µM; with MCF-10A, above 25 µM.

As to `Cc1cccc(-c2nc(N)nc(Nc3ccc(OC(F)(F)F)cc3)n2)c1` [Compound 58], the viability at 10 µM was found to be 50% in the test with MDA-MB231 (MTT), 100% with SKBR-3 and 73% in the test with MCF-7. Moreover, the GI50 in the test on MDA-MB231 (setting [1]) is 15.2 ± 1.01 µM; with MDA-MB231 (setting [2]), 15.1 µM; in the test with SKBR-3 it was above 20 µM; in the test on MCF-7, above 20 µM; in the test with MCF-10A, above 25 µM.

For the compound `Cc1ccc(-c2nc(N)nc(Nc3ccccc3F)n2)cc1` [Compound 61], the viability at 10 µM in the test on MDA-MB231 (MTT) came to 50%; in the test on SKBR-3, 79%; in the test on MCF-7 it was 73%. Also, the GI50 was 12.2 ± 1.15 µM in the test with MDA-MB231 (setting [1]); 12.3 µM in the test with MDA-MB231 (setting [2]); above 20 µM with SKBR-3; above 20 µM with MCF-7; above 25 µM in the test on MCF-10A.

For `Cc1ccc(-c2nc(N)nc(Nc3ccc(F)cc3)n2)cc1` [Compound 62], the viability at 10 µM in the test with MDA-MB231 (MTT) worked out at 48%; in the test with SKBR-3, 78%; in the test on MCF-7, 100%. For the same compound, the GI50 with MDA-MB231 (setting [1]) was 10.7 ± 0.73 µM; in the test on MDA-MB231 (setting [2]) it was 10.7 µM; in the test on SKBR-3 it was above 20 µM; in the test on MCF-7, 20.2 ± 1.95 µM; in the test with MCF-10A, above 25 µM.

For the compound `COc1ccc(-c2nc(N)nc(Nc3ccccc3F)n2)cc1` [Compound 70], the viability at 10 µM amounted to 9% with MDA-MB231 (MTT), 46% in the test with SKBR-3 and 63% with MCF-7. In addition, the GI50 with MDA-MB231 (setting [1]) is 0.32 ± 0.04 µM; in the test with MDA-MB231 (setting [2]), 0.324 µM; in the test with SKBR-3, above 20 µM; in the test on MCF-7, above 20 µM; with MCF-10A it was above 25 µM.

Regarding `COc1ccc(-c2nc(N)nc(Nc3ccccc3Cl)n2)cc1` [Compound 73], the viability at 10 µM in the test on MDA-MB231 (MTT) is 10%; in the test on SKBR-3, 47%; in the test with MCF-7, 84%. The GI50 in the test on MDA-MB231 (setting [1]) is 0.23 ± 0.03 µM; in the test with MDA-MB231 (setting [2]), 0.229 µM; in the test with SKBR-3 it was 1.1 ± 0.01 µM; in the test with MCF-7, above 20 µM; in the test with MCF-10A, above 25 µM. Besides, the “activity against SKBR-3 cells (in words)” value with SKBR-3 (SAR discussion, compared with MDA-MB231) is reported as “equipotent”.

With `COc1ccc(-c2nc(N)nc(Nc3cccc(Cl)c3)n2)cc1` [Compound 74], the values for the viability at 10 µM with MDA-MB231 (MTT), in the test with SKBR-3 and in the test with MCF-7 were 22%, 45% and 86%, respectively. Besides, the GI50 in the test on MDA-MB231 (setting [1]) is 1.33 ± 0.17 µM; with MDA-MB231 (setting [2]), 1.32 µM; in the test on SKBR-3 it was 0.18 ± 0.04 µM; in the test on MCF-7, 18.3 ± 1.11 µM; with MCF-10A it was above 25 µM.

For `COc1ccc(-c2nc(N)nc(Nc3cccc(C)c3)n2)cc1` [Compound 77], the viability at 10 µM came to 22% in the test with MDA-MB231 (MTT), 40% in the test with SKBR-3 and 79% in the test with MCF-7. Besides, the GI50 in the test on MDA-MB231 (setting [1]) is 0.95 ± 0.04 µM; in the test on MDA-MB231 (setting [2]), 0.955 µM; in the test on SKBR-3, 3.38 ± 0.36 µM; in the test on MCF-7, above 20 µM; with MCF-10A it was above 25 µM.

With `COc1ccc(-c2nc(N)nc(Nc3ccccc3OC)n2)cc1` [Compound 78], the results for the viability at 10 µM with MDA-MB231 (MTT), in the test on SKBR-3 and in the test with MCF-7 were 50%, 66% and 57%, respectively. Also, the GI50 in the test on MDA-MB231 (setting [1]) was 13.2 ± 0.93 µM; with MDA-MB231 (setting [2]), 13.2 µM; with SKBR-3, 2.15 ± 0.12 µM; with MCF-7, above 20 µM; in the test with MCF-10A, above 25 µM.

For the compound `COc1ccc(-c2nc(N)nc(Nc3cccnc3)n2)cc1` [Compound 81], the viability at 10 µM in the test with MDA-MB231 (MTT) amounted to 46%; in the test with SKBR-3, 77%; in the test on MCF-7 it was 91%. Moreover, the GI50 with MDA-MB231 (setting [1]) is 14 ± 1.33 µM; with SKBR-3 it was 15.6 ± 1.06 µM; in the test on MCF-7, above 20 µM; in the test on MCF-10A it was above 25 µM.

Consider `COc1ccccc1Nc1nc(N)nc(-c2ccc(OC(F)(F)F)cc2)n1` [Compound 95], for which the figures for the viability at 10 µM with MDA-MB231 (MTT), with SKBR-3 and with MCF-7 were 46%, 81% and 88%, respectively. For the same compound, the GI50 was 12.8 ± 0.76 µM with MDA-MB231 (setting [1]); 12.9 µM in the test on MDA-MB231 (setting [2]); above 20 µM in the test on SKBR-3; above 20 µM in the test with MCF-7; above 25 µM in the test with MCF-10A.

Regarding `Nc1nc(Nc2cccnc2)nc(-c2ccc(OC(F)(F)F)cc2)n1` [Compound 99], the viability at 10 µM in the test on MDA-MB231 (MTT) stood at 33%; with SKBR-3, 81%; in the test with MCF-7, 85%. Moreover, the GI50 in the test on MDA-MB231 (setting [1]) is 11.5 ± 1.51 µM; with MDA-MB231 (setting [2]), 11.5 µM; in the test on SKBR-3, above 20 µM; in the test with MCF-7, above 20 µM; with MCF-10A, above 25 µM.
